From patent publication US20200206198A1, “CFTR CHANNEL ACTIVATOR FOR USE IN THE TREATMENT AND/OR PREVENTION OF GLUTEN SENSITIVITY CONDITIONS” (priority 2017, published 2020)

Tests used:
[1] = test system: rhNBD1 and its double mutants F400A/E403A and P439A/P477A; test: Native polyacrylamide electrophoresis (BN-PAGE) of biotinylated peptide with rhNBD1; assay type: binding, human
Method: Peptide-protein interactions were further studied exploiting a different biochemical strategy: recombinant NBD1, both wild type and/or its mutants, were incubated at 4° C. for 30′ in 40 mM Tris pH 7.5 in the presence of the biotinylated P31-43 peptide unless otherwise indicated and resolved in native conditions by BN-PAGE (Novex, Invitrogen). The complexes were then blotted onto PVDF membrane in accordance with the manufacturer's instructions and the interacting partners were detected with streptavidin-HRP antibody (PerkinElmer).
e-f, Blue native PAGE western blotting of P31-43 and P57-68 biotinylated peptides in the presence of rhNBD1 (e), and of WT and double NBD1 mutants in the presence of biotinylated P31-43 (0. g, SPR analysis of 4QA peptide on rhNBD1 covalently bound to CMS sensor chip. h-i, treatment of Caco-2 cells with P31-43 or P31-43 modified in different Q or P positions. (h) Assessment in Ussing chambers of CFTR-dependent Cl^− secretion measured by forskolin-induced (Fsk) increase of the chloride current (Isc (μA/cm^2); quantification of the peak CFTR Inhibitor 172 (CFTRinh172)-sensitive Isc (ΔIsc). (i) Assessment of iodide efflux by SPQ fluorescent probe upon stimulation with forskolin (Fsk) expressed as percentage of CFTR function in the presence or absence of peptide challenge. […]

[2] = test system: rhNBD1 ATP binding site; test: Intrinsic tryptophan (W401) fluorescence of NBD1; design: species or system human; conditions: preincubation of rhNBD1 with peptide
Method: To assess the capability of P31-43 peptide to bind NBD1 domain and modify its ATP binding site the intrinsic Tryptophan fluorescence of NBD1 was measured. Experiments were performed in a 0.2 ml fluorimeter cuvette at 25° C. using Varian Cary Eclipse fluorescence spectrophotometer. NBD1 protein was diluted to 1 μM in a buffer containing 50 mM Tris/HCl (pH 7.6), 150 mM NaCl, and 5 mM MgCl2, supplemented with 2 mM ATP and P31-43 5 μM when indicated. All spectra were corrected for buffer fluorescence. Excitation wavelength was adjusted to 292 nm and emission was scanned over the range 300-500 nm.

[3] = test system: Caco-2 cells; test: Innate immune activation in Caco-2 cells (NLRP3, caspase-1, IL-15, NF-κB p65); assay type: cell-based, human
Method: Human colon adenocarcinoma-derived Caco-2 and T84 cells were obtained from the ATCC. Cells were maintained in T25 flask in Modified Eagle Medium (MEM) for Caco-2, or Ham's F12+DMEM (1:1) for T84, supplemented with 10% fetal bovine serum (FBS), 2 mM Glutamine+1% Non Essential Amino Acids (NEAA) and the antibiotics penicillin\streptomycin (100 units/ml) (all reagents from Lonza) (Luciani, A., et al. 2010. Cells were grown in Transwells (Corning, 3470 or 3460) under the normal condition (Luciani, A., et al. 2012). Briefly, 8×10^4 or 5×10^5 cells were seeded in 6.5-mm diameter or 12-mm diameter, respectively, and grown until the RT reached 800 to 1,200 Ω·cm2. Transwells with a pore size of 0.4 μm were used. Medium in both the apical and basolateral chambers was changed every other day. Cells were treated with 20 μg/ml of either α-gliadin peptide P31-43 or […]-69 or scrambled PGAV or modified P31-43 either biotin-tagged or not, for different time point (from 1 h short challenge up to 24 h). Cells were also treated with 50 or 100 μg/ml of […]-68 or PGAV peptides for 3 h. Caco-2 or T84 cells were also treated with: CFTR potentiators VX-770 (10 μM) or VX-532 (20 μM) (Selleck chemicals) or Genistein (10 μM) (Sigma-Aldrich) or in presence or absence of CFTR inhibitor172 (CFTRinh172, 20 μM) or 3-methyl-adenine (3-MA, 20 μM) (Calbiochem), Z-DON (20 nM, Zedira) or BAPTA-AM (10 μM, Calbiochem). The whole lysate or membrane fraction proteins of cell lines and mice intestine homogenates were obtained from treated and untreated cells or mice as described. The equal amount of protein were resolved by SDS-PAGE gel and blotted with antibodies against: SQSTM1, (Sigma Aldrich, 108k4767) 1:1000, PPARγ (Santa Cruz Biotechnology, sc7273) 1:500, BECN1 (Abcam, ab58878) 1:1000, CFTR clone M3A7 (Abcam, ab4067) 1:500, phospho-ERK1/2 (php42/44, Cell Signaling Technology, #91101) 1:1000, UVRAG (Santa Cruz Biotechnology sc8215) 1:1000, NHERF-1 (BD, 611161) 1:1000, EZRIN (BD, 610603) 1:1000, hVps34 (SigmaV9764) 1:300, biotin (Abcam, ab1227) 1:2000, PKAr2a (BD, 610625) 1:500, Ubiquitin (Cell Signaling clone P4D1, #3936) 1:1000, CHIP (Calbiochem PC711) 1:500, Caspase-1 p10 (M-20) (Santa Cruz Biotechnology, sc-514) 1:200, NLRP3 (Abcam, ab4207), 1:500, IDO1 (monoclonal; cv152) 1:1000^[80], used as primary antibodies. Normalization was performed by probing the membrane with anti-β-actin (Cell Signaling, #4970) 1:1000, anti-Gapdh (Sigma-Aldrich, G8795) 1:1000 and anti-flottilin (Abcam ab15148) 1:1000 antibodies. Immunoprecipitations of endogenous proteins were performed on 500 μg of lysates from Caco-2 cells. The proteins were incubated for 12-18 h at 4° C. with 10 ug\ml of specific antibody followed by the addition of Protein A/G-agarose beads for 4 h at 4° C. The beads were then washed three times with lysis buffer and Laemmli's sample buffer was added to the samples. The membranes were then blotted with: CFTR clone CF3 (Abcam, ab2784) 1:1000, TG2 (clone CUB7402; NeoMarkers) 1:1000, CHIP (Calbiochem PC711) 1:500, Ubiquitin (Cell Signaling clone P4D1 3936), isopeptide (Abcam 422) 1:1000, PKAR2 (BD 610625) 1:500. For cytoplasmic and nuclear extracts human colorectal carcinoma Caco-2 cells were harvested, washed in cold PBS twice, and centrifuged at 6000 rpm for 5 min in cold room to collect pellets. […] The protein concentrations were measured by Bradford protein assay (Protein Reagent, Bio-Rad). […]

Sequence of rhNBD1 ATP binding site (P13569 389-646 limits assumed): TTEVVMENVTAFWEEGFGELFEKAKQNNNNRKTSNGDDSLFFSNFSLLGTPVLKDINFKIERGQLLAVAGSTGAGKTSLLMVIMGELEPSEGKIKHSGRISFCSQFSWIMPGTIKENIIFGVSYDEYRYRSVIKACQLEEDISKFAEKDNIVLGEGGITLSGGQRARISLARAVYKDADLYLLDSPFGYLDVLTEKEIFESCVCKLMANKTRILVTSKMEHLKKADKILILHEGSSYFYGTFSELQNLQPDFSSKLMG

Molecule	binding to native rhNBD1 [1]	binding to rhNBD1 double mutants F400A/E403A and P439A/P477A [1]	effect on ATP quenching of W401 fluorescence [2]	NF-κB p65 translocation into the nucleus ([3]; Caco-2 cells after incubation with peptide)	effect on P31-43-induced NF-κB p65 nuclear translocation ([3]; Caco-2 cells)	effect on P31-43-induced NLRP3 expression ([3]; Caco-2 cells)	effect on P31-43-induced caspase-1 cleavage ([3]; Caco-2 cells)	effect on P31-43-induced production of IL-15 ([3]; Caco-2 cells, ELISA, p<0.001)
α-gliadin peptide LGQQQPFPPQQPY (SEQ ID 1), induces an enterocyte stress response (P31-43 sequence of alpha-gliadin)	bound to rhNBD1	attenuated for both rhNBD1 mutants	quenching effect of ATP on W401 fluorescence was reduced	NF-κB p65 translocation into the nucleus was observed	–	–	–	–
CC(C)(C)c1cc(C(C)(C)C)c(NC(=O)c2c[nH]c3ccccc3c2=O)cc1O [VX-770, N-(2,4-di-tert-butyl-5-hydroxyphenyl)-4-oxo-1,4-dihydroquinoline-3-carboxamide]	–	–	–	–	suppressed	prevented	prevented	prevented the P31-43-induced production of IL-15
